Measurements from patent US20060258738A1, “Use of dronabinol for treatment of side effects of Hepatitis C therapy” (priority 2005, published 2006).

Tests used:
[1] = Retrospective chart review: adverse events, tolerability and discontinuation of dronabinol
[2] = tested on: GI side effects (nausea/vomiting, anorexia and weight loss) related to anti-HCV therapy; experiment: Retrospective chart review: open label dronabinol for GI side effects of anti-HCV therapy, positive response; assay type: in vivo, human; conditions: whole cohort
Procedure: A retrospective chart review of 22 patients with chronic HCV receiving IFN (Pegylated n=18, standard n=4) and RBV was performed. All were receiving open label dronabinol for specific GI side effects (nausea/vomiting, anorexia and weight loss) related to anti-HCV therapy. Over half the cohort (13/22) were co-infected with HIV. Demographic, clinical, and virological data was recorded at baseline (pre dronabinol therapy); Body Mass Index (BMI) was calculated at baseline, and at the end of dronabinol therapy.
A positive response to dronabinol was defined as follows: […]
Subjective: Documentation in chart of improvement in symptoms of nausea, vomiting or anorexia, as reported by patient.
Objective: No change or increase in BMI at end of dronabinol treatment compared to baseline.

With `CCCCCc1cc(O)c2c(c1)OC(C)(C)[C@@H]1CCC(C)=C[C@@H]21` [dronabinol, delta-9-tetrahydrocannabinol] the Tolerability ([1]; the 4 members of the cohort aged 60 or greater) was “well tolerated”, the Tolerability ([1]; whole cohort, including those with HIV/HCV) was “well-tolerated by the majority of the cohort” and the “Positive outcome, both for improvement in symptoms and stabilization or increase in BMI” value [2] was “over 40%”.
